Data set [1] deals with C. difficile strain 630Δerm. The class given is cell-based, Clostridium difficile. To be noted: for Effect on biofilm (disassembly): 3 μM D-tyrosine, 2 mM D-methionine, 5 mM D-tryptophan, 8.5 mM D-leucine, mixture 2.5 nM each (FIG. 12).
The test system of the next data set is B. subtilis biofilms. The settings on record: cited from earlier work.
For data set [2], the system named is C. difficile strain R20291. The class given is cell-based, Clostridium difficile.
In a further data set the test system is S. aureus. The settings on record: cited from earlier work; for Biofilm disassembly: 10 μM, 100 μM and 500 μM.
Data set [3] deals with C. difficile 630Δerm biofilm. Put plainly: DNase, RNase and proteinase K digests of biofilm (floc) in liquid culture. The settings on record: 15 minute treatment, room temperature.
In data set [4] the test system is C. difficile R20291 biofilm. Put plainly: DNase, RNase and proteinase K digests of biofilm in liquid culture. To be noted: 15 minutes.
The subject of data set [5] is C. difficile strain 630Δerm. Put plainly: Inhibition of biofilm formation in TC flasks.
In data set [6] the test system is 630Δerm C. difficile biofilms. Put plainly: DNase treatment of biofilms visualised by confocal microscopy. The settings on record: for Degradation of the biofilm (confocal microscopy): 15 minutes. The class given is cell-based, Clostridium difficile. The procedure:
The untreated controls were incubated for 15 minutes with 0.15 M NaCl and washed with 1×PBS. These coverslips were mounted onto glass slides, a coverslip was applied over a 50% glycerol mounting media and these were sealed with clear nail varnish. The slides were visualised under oil immersion using a ×40 objective using a laser confocal microscope (Zeiss microscope).

Where [7] appears, read: 3 μM D-tyrosine, 2 mM D-methionine, 5 mM D-tryptophan, 8.5 mM D-leucine, mixture 2.5 nM each.
[8] abbreviates: 10 μg/ml added prior to inoculation, 6 day incubation, static and shaking.

Like-named read-outs stand apart in the source and are kept apart here. Where no end group is shown, it is not given here.

For the compound `N[C@H](Cc1ccc(O)cc1)C(=O)O` [D-tyrosine], the “Effect on biofilm (disassembly)” value in data set [1] and in data set [2] was “no significant effect” throughout. For the same compound, the Biofilm disassembly entry with B. subtilis biofilms (setting [7]) and in the data set with S. aureus was “disassembled” throughout.

Take DNase: the “Degradation of the biofilm (floc produced in static culture)” value in data set [3] (100 ug/ml) and in data set [3] (1 mg/ml) was “Degradation of the biofilm was observed” in each case. The “Degradation of the biofilm” value in data set [4] (1 mg/ml) and in data set [4] was “degradation of the biofilm observed” in each case. In data set [5] (setting [8]), the “Bacterial growth (turbidity of media)” value is “turbid, indicating bacterial growth”. In addition, in data set [5] (setting [8]), the “Biofilm formation (flocs or aggregates)” value is “no flocs or aggregates were observed”. Further, the “Formation of biofilm in liquid media” value in data set [5] (10 mg/ml in the growth media, incubated statically for six days (FIG. 9)) is reported as “inhibits the formation of biofilm”. The “Degradation of the biofilm (confocal microscopy)” value in data set [6] (1 ug DNase) and in data set [6] (10 ug DNase) was “incomplete degradation” in each case. Besides, in data set [6] (DNase for 15 minutes, BHIS and YP media, compared to untreated controls), the “Degradation of the biofilms (confocal microscopy)” value is on record as “biofilms were absent”.

`N[C@H](Cc1c[nH]c2ccccc12)C(=O)O` [D-tryptophan]: in data set [1], the Biofilm formation entry is given as “increased the biofilm formation”, the Disruption of biofilms result is recorded as “not disrupted” and the “Effect on biofilm (disassembly)” value was “no significant effect”. The Biofilm disassembly entry in the data set with B. subtilis biofilms (setting [7]) was “disassembled”. Besides, in data set [2], the Biofilm formation entry is reported as “increased the biofilm formation”, the Disruption of biofilms result was “not disrupted” and the “Effect on biofilm (disassembly)” value is recorded as “no significant effect”.

Consider `N[C@H](Cc1ccccc1)C(=O)O` [D-phenylalanine], for which the Biofilm disassembly entry in the data set on S. aureus is on record as “disassembled”.

Consider “Human beta-defensin 3: cationic peptide shown to inhibit biofilm formation in S. aureus (GIINTLQKYYCRVRGGRCAVLSCLPKEEQIGKCSTRGRKCCRRKK; ends and bridges not checked; cysteine pairing not given here; UniProt P81534 23-67, looked up)”, for which, in the data set on S. aureus, the “Inhibition of biofilm formation” value was “inhibit biofilm formation”.

On to `O=C(O)[C@H]1CCCN1` [D-proline], for which, in the data set on S. aureus, the Biofilm disassembly result is listed as “disassembled”.

In the case of `CC(C)C[C@@H](N)C(=O)O` [D-leucine], in data set [1], the “Effect on biofilm formation” value is “ineffective”, the “Growth of the bacteria” value was “inhibited” and the “Effect on biofilm (disassembly)” value is “no significant effect”. The Biofilm disassembly result in the data set with B. subtilis biofilms (setting [7]) was “disassembled”. In addition, in data set [2], the “Effect on biofilm (disassembly)” value is recorded as “no significant effect”, the “Effect on biofilm formation” value is given as “ineffective” and the “Growth of the bacteria” value is on record as “reduced”.

For the compound `CSCC[C@@H](N)C(=O)O` [D-methionine], the “Effect on biofilm (disassembly)” value in data set [1] and in data set [2] was “no significant effect” each time. In the data set on B. subtilis biofilms (setting [7]), the Biofilm disassembly result is given as “disassembled”.

Regarding `NCCCNCCCN` [norspermidine], in data set [1], the Biofilm level entry is “significantly reduced”, the “Disassembly of biofilm performed in tissue culture flasks” value is reported as “not disrupted”, the Disassembly of biofilms entry is “does not disassemble biofilms” and the Viability result is “slight decrease in viability”. The Biofilm disassembly entry with B. subtilis biofilms (norspermidine at 100, 50 and 25 μM) is recorded as “disassemble biofilms”. In data set [2], the “Biofilm formation on addition to biofilm cultures” value is on record as “enhances the biofilm formation” and the Disassembly of biofilms entry is “does not disassemble biofilms”.

Values taken from US10039812B2, “Therapeutic for treating clostridium difficile infection” (priority 2012, dated 2018).
